Experimental findings from patent publication US8097623B2, “Indoles useful in the treatment of inflammation” (Biolipox AB, priority 2005, dated 2012) are described below.

Molecules are shown by their SMILES.

This assay addresses T1, mPGES-1 (Homo sapiens, UniProt O14684).
T1 construct: made in house; host or cells: E. coli
T1 sequence (O14684 1-152): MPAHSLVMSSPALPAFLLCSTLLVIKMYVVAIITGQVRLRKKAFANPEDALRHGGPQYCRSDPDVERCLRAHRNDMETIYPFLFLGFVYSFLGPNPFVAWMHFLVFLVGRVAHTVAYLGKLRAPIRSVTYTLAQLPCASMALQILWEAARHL
In words: mPGES-1 biological test: conversion of PGH2 to PGE2, PGE2 quantified by HPLC. Format: biochemical. Particulars: mPGES-1 expressed in E. coli, membrane fraction; 25 min preincubation with inhibitor, 60 s with PGH2, room temperature; read-out: IC50 (inhibition of mPGES-1). As to the method:
In the assay mPGES-1 catalyses the reaction where the substrate PGH2 is converted to PGE2. mPGES-1 is expressed in E. coli and the membrane fraction is dissolved in 20 mM NaPi-buffer pH 8.0 and stored at −80° C. In the assay mPGES-1 is dissolved in 0.1M KPi-buffer pH 7.35 with 2.5 mM glutathione. The stop solution consists of H2O/MeCN (7/3), containing FeCl2 (25 mM) and HCl (0.15 M). The assay is performed at room temperature in 96-well plates. Analysis of the amount of PGE2 is performed with reversed phase HPLC (Waters 2795 equipped with a 3.9×150 mm C18 column). The mobile phase consists of H2O/MeCN (7/3), containing TFA (0.056%), and absorbance is measured at 195 nm with a Waters 2487 UV-detector.
The following is added chronologically to each well: • 1. 100 μL mPGES-1 in KPi-buffer with glutathione. Total protein concentration: 0.02 mg/mL. • 2. 1 μL inhibitor in DMSO. Incubation of the plate at room temperature for 25 minutes. • 3. 4 μL of a 0.25 mM PGH2 solution. Incubation of the plate at room temperature for 60 seconds. • 4. […] stop solution. • 180 μL per sample is analyzed with HPLC.
Take `CC(C)Oc1ccc(-n2c(C(=O)O)c(CN3CCCC3C(=O)O)c3cc(-c4ccc(C(C)(C)C)cc4)ccc32)cc1` (centres unmarked) [Example 87, 1-[5-(4-tert-Butylphenyl)-2-carboxy-1-(4-isopropoxyphenyl)indol-3-ylmethyl]-2-carboxypyrrolidinium chloride]: the IC50 (as a rule, the midpoint of a concentration-inhibition curve) was 2.3 µM.
For `CC(C)Oc1ccc(-n2c(C(=O)O)c(CCC(=O)O)c3cc(-c4ccc(C(F)(F)F)cn4)ccc32)cc1` [Example 88, 3-(2-Carboxyethyl)-1-(4-isopropoxyphenyl)-5-(5-trifluoromethylpyridin-2-yl)indole-2-carboxylic acid], the IC50 came out at 5.4 µM.
For `CC(=O)NC(Cc1c(C(=O)O)n(-c2ccc(OC3CCCC3)cc2)c2ccc(-c3ccc(C(F)(F)F)cc3)cc12)C(=O)O` (centres unmarked) [Example 85, 3-(2-Acetylamino-2-carboxyethyl)-1-(4-cyclopentyloxyphenyl)-5-(4-trifluoromethylphenyl)indole-2-carboxylic acid], the half-maximal inhibitory concentration (IC50) worked out at 6.9 µM.
The same measure for `CCOC(=O)c1c(C(=O)O)c2cc(-c3ccc(C(F)(F)F)cc3)ccc2n1-c1ccc(OC2CCCC2)cc1` [Example 67, 1-(4-Cyclopentyloxyphenyl)-5-(4-trifluoromethylphenyl)indole-2,3-dicarboxylic acid 2-ethyl ester]: 1.9 µM; for `CC(C)Oc1ccc(-n2c(C(=O)O)c(C(=O)O)c3cc(Oc4ccc(C(F)(F)F)cn4)ccc32)cc1` [Example 19, 1-(4-Isopropoxyphenyl)-5-(5-trifluoromethylpyridin-2-yloxy)indole-2,3-dicarboxylic acid]: 4.3 µM.
